These results are taken from ChEMBL document CHEMBL4699528, “Discovery and Optimization of Non-bile Acid FXR Agonists as Preclinical Candidates for the Treatment of Nonalcoholic Steatohepatitis” (J Med Chem, 2020).

Data set [1] can be described thus: in vivo. To be noted: Sprague-Dawley, rat, plasma, po, 3 mg/kg.
A short description of data set [2]: in vivo. The settings on record: Sprague-Dawley, rat, plasma, po, 3 mg/kg. This is another data set of the same source.
A short description of data set [3]: in vivo. The settings on record: Sprague-Dawley, rat, liver, po, 3 mg/kg.
Data set [4] can be described thus: in vivo. To be noted: Sprague-Dawley, rat, liver, po, 3 mg/kg. The source holds these as a separate data set.
Data set [5] in a line: in vivo. To be noted: Sprague-Dawley, rat, po, 3 mg/kg.
The nature of data set [6]: in vivo. To be noted: Sprague-Dawley, rat, po, 3 mg/kg. The source holds these as a separate data set.
A short description of data set [7]: in vivo. The settings on record: Sprague-Dawley, rat, po, 3 mg/kg. This is another data set of the same source.
The nature of data set [8]: in vivo. The settings on record: Sprague-Dawley, rat, po, 3 mg/kg. The source holds these as a separate data set.
The nature of data set [9]: in vivo. To be noted: Sprague-Dawley, rat, iv, 1 mg/kg.
The nature of data set [10]: in vivo. The settings on record: Sprague-Dawley, rat, iv, 1 mg/kg. This is another data set of the same source.
Data set [11] in a line: in vivo. The settings on record: Sprague-Dawley, rat, iv, 1 mg/kg. The source holds these as a separate data set.
Data set [12] can be described thus: in vivo. To be noted: Sprague-Dawley, rat, 3 mg/kg.
Data set [13] in a line: in vivo. To be noted: Sprague-Dawley, rat, po, 3 mg/kg. The source holds these as a separate data set.

Molecules are shown by their SMILES.

Usually Tmax stands for the time at which the peak concentration occurs. A word on the Cmax: it is the highest concentration seen after dosing. As usually defined, the half-life is the time in which the quantity being followed falls by half. High values mean slow loss, low ones fast loss. Usually AUC(0-t) stands for the area under the concentration-time curve up to a stated or last time point. A low value points to less exposure. In general, MRT inf refers to the average time that molecules of a dose stay in the body. A word on the clearance: it is a measure of how efficiently the substance is removed, as volume per time. The term Vd denotes the apparent volume that relates the amount in the body to the concentration in plasma or blood. Lower therefore signals confinement near the circulation. One may read the bioavailability as dose-corrected exposure relative to a reference, in per cent. Low values mean poor availability, high ones good availability. As to `O=C(O)c1cc(F)c2nc(N3C4CCC3CC(F)(COCc3c(-c5ccccc5OC(F)(F)F)noc3C3CC3)C4)sc2c1` (configuration not stated), the figures for the concentration at 1 h in the data set “in vivo [1]” and in “in vivo [3]” were 1140 ng/mL and 2340 ng/mL, respectively. Further, the concentration at 4 h in “in vivo [2]” amounted to 165 ng/mL; in “in vivo [4]”, 612 ng/mL. In addition, in the data set “in vivo [5]”, the Tmax came to 22.8 min. The Cmax in the data set “in vivo [6]” is 590 ng/mL. In “in vivo [7]”, this compound gave a half-life of 1220 min. For the same compound, the AUC(0-t) turned out to be 1860 ng·h/mL in “in vivo [8]” and 1930 ng·h/mL in “in vivo [9]”. The compound further had a mean residence time MRT inf in “in vivo [10]” of 102 min. Besides, the clearance in the data set “in vivo [11]” was 8.54 mL/min/kg. In “in vivo [12]”, the Vd was 0.84 L/kg. In “in vivo [13]”, this compound returned a bioavailability of 32.2%.

Turning to `CCn1c(C(=O)O)cc2ccc(N3CCC(F)(COCc4c(-c5c(Cl)cccc5Cl)noc4C4CC4)CC3)cc21`, the concentration at 1 h in “in vivo [1]” stood at 6.3 ng/mL; in the data set “in vivo [3]” it was 72 ng/mL. In addition, the figures for the concentration at 4 h in “in vivo [2]” and in “in vivo [4]” were 12.6 ng/mL and 186 ng/mL, respectively.

For the compound `CCn1cc(C(=O)O)c2ccc(N3CCC(F)(COCc4c(-c5c(F)cccc5Cl)noc4C4CC4)CC3)cc21`, the concentration at 1 h in the data set “in vivo [1]” is 24 ng/mL; in “in vivo [3]”, 656 ng/mL. Also, the concentration at 4 h stood at 49 ng/mL in “in vivo [2]” and 772 ng/mL in the data set “in vivo [4]”. The Tmax in the data set “in vivo [5]” stood at 15 min. Besides, the peak level in the data set “in vivo [6]” (Cmax) was 117 ng/mL. Further, the half-life in the data set “in vivo [7]” was 58.8 min. The figures for the AUC(0-t) in “in vivo [8]” and in “in vivo [9]” were 103 ng·h/mL and 611 ng·h/mL, respectively. The same compound returned an MRT inf in the data set “in vivo [10]” of 30.6 min. This compound also came in with a clearance in “in vivo [11]” of 26.4 mL/min/kg. In the data set “in vivo [12]”, this compound registered a Vd of 0.81 L/kg. Besides, the bioavailability in the data set “in vivo [13]” was 5.64%.

In the case of `Cn1cc(C(=O)O)c2ccc(N3CCC(OCc4c(-c5c(Cl)cccc5Cl)noc4C4CC4)CC3)cc21` [TERN-101], the concentration at 1 h in the data set “in vivo [1]” came to 19.3 ng/mL; in “in vivo [3]”, 121 ng/mL. The concentration at 4 h in “in vivo [2]” worked out at 52.1 ng/mL; in the data set “in vivo [4]” it was 153 ng/mL. Moreover, the Tmax in the data set “in vivo [5]” turned out to be 15 min. Besides, the peak level in the data set “in vivo [6]” (Cmax) was 283 ng/mL. In the data set “in vivo [7]”, the half-life is 133 min. Besides, the AUC(0-t) in “in vivo [8]” amounted to 195 ng·h/mL; in the data set “in vivo [9]”, 201 ng·h/mL. The compound also had an MRT inf in the data set “in vivo [10]” of 21 min. In the data set “in vivo [11]”, this compound displayed a clearance of 82.6 mL/min/kg. The compound further displayed a Vd in the data set “in vivo [12]” of 1.74 L/kg. The compound also returned a bioavailability in “in vivo [13]” of 32.4%.

`O=C(O)c1cc(F)c2nc(N3CCC(F)(COCc4c(-c5c(F)cccc5Cl)noc4C4CC4)CC3)sc2c1`: the results for the concentration at 1 h in “in vivo [1]” and in the data set “in vivo [3]” were 241 ng/mL and 1550 ng/mL, respectively. The concentration at 4 h was found to be 94.8 ng/mL in the data set “in vivo [2]” and 929 ng/mL in “in vivo [4]”.
